Results reported in patent publication US20240327506A1, “METHODS AND COMPOSITION FOR THE SELECTIVE ENHANCEMENT OF ADOPTIVE CELL THERAPY” (MaineHealth, priority 2023, published 2024).

How the values were obtained:
[1] = test system: Jurkat T-cells; experiment: Transwell migration of Jurkat T-cells through collagen type-IV; type: cell-based, human; conditions: peptide, SDF-1 in lower chamber
Procedure: (§1) FIGS. 4A-4H. […] Briefly, membranes from transwell migration chambers were coated with either native collagen type-IV or denatured collagen type-IV. T-cell variants were incubated with non-specific control peptide CP, or the RGDKGE (SEQ ID NO: 1)-containing collagen peptide (P2) and seed on the coated transwell membranes. T-cells were allowed to migrate in the presence or absence of SDF-1 added to the lower chamber for approximately 1.5 hours. Cell migration was quantified by counting the number of crystal violet stained cells that had migrated through to the underside of the coated membrane. FIG. 4A. Jurkat T-cell migration through denatured collagen type-IV in the presence of non-specific control peptide CP or RGDKGE (SEQ ID NO: 1)-containing collagen peptide P2 with SDF-1. FIG. 4B. Jurkat T-cell migration through native collagen type-IV in the presence of non-specific control peptide CP or RGDKGE (SEQ ID NO: 1)-containing collagen peptide P2 with SDF-1. FIG. 4C. Cem/C1 T-cell migration through denatured collagen type-IV in the presence of non-specific control peptide CP or RGDKGE (SEQ ID NO: 1)-containing collagen peptide P2 with SDF-1. FIG. 4D. […]
(§2) FIGS. 5A-5F. […] Cell migration was quantified by counting the number of crystal violet stained cells that had migrated through to the underside of the coated membrane. […]

[2] = test system: primary CD8+ T-cells from melanoma bearing C57BL/6 mice; experiment: Transwell migration of primary CD8+ T-cells through collagen type-IV; type: cell-based, murine; conditions: peptide
Procedure: as §1, §2

[3] = test system: primary murine CD8+ T-cells; experiment: CD8+ T-cell polarization on denatured collagen type-IV (F-actin staining); type: cell-based; conditions: denatured collagen type-IV coated slides, 1 hour, compared to CP
Text: FIGS. 3A-3C. The RGDKGE (SEQ ID NO: 1)-containing collagen peptide P2 inhibits CD8+ T-cell polarization on denatured collagen type-IV. Briefly, microscopy slides were coated with denatured collagen type-IV to mimic the altered subendothelial basement membranes of tumor associated blood vessels. Murine primary CD8+ T-cells were isolated from mice bearing B16F10 melanomas and stimulated with either non-specific control peptide CP or the RGDKGE (SEQ ID NO: 1)-containing collagen peptide P2 and seeded on the coated slides. T-cells were allowed to incubate for 1 hour. Next slides were washed, fixed and stained with Rhodamine-labeled Phalloidin to mark F-actin. Cells were analyzed for morphological evidence of cell shape changes and polarized F-actin. FIG. 3A. Example of an enlarged image of CD8+ T-cell morphology following stimulation with either non-specific control peptide CP or the RGDKGE (SEQ ID NO: 1)-containing collagen peptide P2. FIG. 3B. Example of CD8+ T-cell morphology following stimulation with either non-specific control peptide CP or the RGDKGE (SEQ ID NO: 1)-containing collagen peptide P2. […] FIG. 3C. Quantification of the mean percentage of polarized CD8+ T-cells per 400× microscopic field. Data bars indicate mean percentage of polarized cells per 400× microscopic field from two independent experiments with 10 to 11 fields per treatment. *P<0.05. […]

Sequence: QGPRGDKGE (CQGPRGDKGEC; Synthetic: Synthetic collagen RGD containing peptide P-2) [Peptide P2, synthetic version of the soluble RGDKGE-containing collagen peptide]
- Jurkat T-cell migration ([1]; denatured collagen type-IV): selectively inhibited
- Jurkat T-cell migration ([1]; native collagen type-IV): neither the soluble RGDKGE (SEQ ID NO: 1) collagen peptide P2, nor the non-specific control peptide had any significant effect
- primary murine CD8+ T-cell migration ([2]; denatured collagen type-IV, SDF-1, compared to CP): selectively inhibited
- primary murine CD8+ T-cell migration ([2]; native collagen type-IV, SDF-1): neither the RGDKGE (SEQ ID NO: 1) collagen peptide P2, nor the non-specific control peptide CP had any significant impact
- percentage of T-cells exhibiting a migratory and polarized morphological phenotype [3]: significant decrease
